# Measured values published in the supplement of paper PMC10307832.
# Experiments:
# Test in all cases: relative viability (nuclei count vs DMSO), 5 days (fraction); higher = more cells survive
# 201T = test system: 201T
# Outline: (§1)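 After 5 days of treatment, lung cancer cells in 1536-well plates were fixed and stained in a single step (final 0.05% Triton X-100, 1% formaldehyde, 1 ug/ml Hoechst) and their nuclei counted on 4× images. Treatment had been applied by pin tool the day after seeding as one drug alone or as a fixed anchor-drug dose with five library-drug doses (not always all listed) in √10 steps. Relative viability is the nuclei count of treated wells divided by that of vehicle wells, and values are medians of duplicate plates.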
# PC-14 = test system: PC-14
# Outline: as §1
# NCI-H23 = test system: NCI-H23
# Outline: as §1
# NCI-H1793 = test system: NCI-H1793
# Outline: as §1
# NCI-H358 = test system: NCI-H358
# Outline: as §1
# EMC-BAC-2 = test system: EMC-BAC-2
# Outline: as §1
# NCI-H1755 = test system: NCI-H1755
# Outline: as §1
# SK-MES-1 = test system: SK-MES-1
# Outline: as §1
# HCC-366 = test system: HCC-366
# Outline: as §1
# NCI-H1437 = test system: NCI-H1437
# Outline: as §1
# NCI-H1395 = test system: NCI-H1395
# Outline: as §1
# NCI-H650 = test system: NCI-H650
# Outline: as §1
# NCI-H2342 = test system: NCI-H2342
# Outline: as §1
# COR-L 105 = test system: COR-L 105
# Outline: as §1
# NCI-H2347 = test system: NCI-H2347
# Outline: as §1
# NCI-H2023 = test system: NCI-H2023
# Outline: as §1
# COR-L23 = test system: COR-L23
# Outline: as §1
# HCC-15 = test system: HCC-15
# Outline: as §1
# NCI-H1792 = test system: NCI-H1792
# Outline: as §1
# LC-2-ad = test system: LC-2-ad
# Outline: as §1
# NCI-H1915 = test system: NCI-H1915
# Outline: as §1
# NCI-H2009 = test system: NCI-H2009
# Outline: as §1
compound,measurement,setting,value
CCNC(=O)c1noc(-c2cc(C(C)C)c(O)cc2O)c1-c1ccc(CN2CCOCC2)cc1 [Luminespib] + O=C(c1cc(Cc2n[nH]c(=O)c3ccccc23)ccc1F)N1CCN(C(=O)C2CC2)CC1 [Olaparib] (partner 8 µM),relative viability,201T; first compound 0.002 µM,0.883
same,relative viability,201T; first compound 0.006325 µM,0.829
same,relative viability,201T; first compound 0.02 µM,0.87
same,relative viability,201T; first compound 0.06325 µM,0.803
same,relative viability,201T; first compound 0.2 µM,0.784
same,relative viability,PC-14; first compound 0.002 µM,0.288
same,relative viability,PC-14; first compound 0.006325 µM,0.261
same,relative viability,PC-14; first compound 0.02 µM,0.101
same,relative viability,PC-14; first compound 0.06325 µM,0.0578
same,relative viability,PC-14; first compound 0.2 µM,0.0514
same,relative viability,NCI-H23; first compound 0.002 µM,0.36
same,relative viability,NCI-H23; first compound 0.006325 µM,0.333
same,relative viability,NCI-H23; first compound 0.02 µM,0.346
same,relative viability,NCI-H23; first compound 0.06325 µM,0.102
same,relative viability,NCI-H23; first compound 0.2 µM,0.121
same,relative viability,NCI-H1793; first compound 0.002 µM,0.999
same,relative viability,NCI-H1793; first compound 0.006325 µM,0.975
same,relative viability,NCI-H1793; first compound 0.02 µM,0.7
same,relative viability,NCI-H1793; first compound 0.06325 µM,0.117
same,relative viability,NCI-H1793; first compound 0.2 µM,0.167
same,relative viability,NCI-H358; first compound 0.002 µM,0.637
same,relative viability,NCI-H358; first compound 0.006325 µM,0.655
same,relative viability,NCI-H358; first compound 0.02 µM,0.577
same,relative viability,NCI-H358; first compound 0.06325 µM,0.0817
same,relative viability,NCI-H358; first compound 0.2 µM,0.0712
same,relative viability,EMC-BAC-2; first compound 0.002 µM,0.489
same,relative viability,EMC-BAC-2; first compound 0.006325 µM,0.482
same,relative viability,EMC-BAC-2; first compound 0.02 µM,0.471
same,relative viability,EMC-BAC-2; first compound 0.06325 µM,0.234
same,relative viability,EMC-BAC-2; first compound 0.2 µM,0.242
same,relative viability,NCI-H1755; first compound 0.002 µM,0.917
same,relative viability,NCI-H1755; first compound 0.006325 µM,0.808
same,relative viability,NCI-H1755; first compound 0.02 µM,0.759
same,relative viability,NCI-H1755; first compound 0.06325 µM,0.817
same,relative viability,NCI-H1755; first compound 0.2 µM,0.794
same,relative viability,SK-MES-1; first compound 0.002 µM,0.713
same,relative viability,SK-MES-1; first compound 0.006325 µM,0.629
same,relative viability,SK-MES-1; first compound 0.02 µM,0.326
same,relative viability,SK-MES-1; first compound 0.06325 µM,0.17
same,relative viability,SK-MES-1; first compound 0.2 µM,0.157
same,relative viability,HCC-366; first compound 0.002 µM,0.401
same,relative viability,HCC-366; first compound 0.006325 µM,0.345
same,relative viability,HCC-366; first compound 0.02 µM,0.424
same,relative viability,HCC-366; first compound 0.06325 µM,0.0205
same,relative viability,HCC-366; first compound 0.2 µM,0.0254
same,relative viability,NCI-H1437; first compound 0.002 µM,0.806
same,relative viability,NCI-H1437; first compound 0.006325 µM,0.63
same,relative viability,NCI-H1437; first compound 0.02 µM,0.684
same,relative viability,NCI-H1437; first compound 0.06325 µM,0.259
same,relative viability,NCI-H1437; first compound 0.2 µM,0.211
same,relative viability,NCI-H1395; first compound 0.002 µM,0.465
same,relative viability,NCI-H1395; first compound 0.006325 µM,0.454
same,relative viability,NCI-H1395; first compound 0.02 µM,0.427
same,relative viability,NCI-H1395; first compound 0.06325 µM,0.403
same,relative viability,NCI-H1395; first compound 0.2 µM,0.383
same,relative viability,NCI-H650; first compound 0.002 µM,0.452
same,relative viability,NCI-H650; first compound 0.006325 µM,0.338
same,relative viability,NCI-H650; first compound 0.02 µM,0.34
same,relative viability,NCI-H650; first compound 0.06325 µM,0.061
same,relative viability,NCI-H650; first compound 0.2 µM,0.0723
same,relative viability,NCI-H2342; first compound 0.002 µM,0.411
same,relative viability,NCI-H2342; first compound 0.006325 µM,0.512
same,relative viability,NCI-H2342; first compound 0.02 µM,0.324
same,relative viability,NCI-H2342; first compound 0.06325 µM,0.348
same,relative viability,NCI-H2342; first compound 0.2 µM,0.238
same,relative viability,COR-L 105; first compound 0.002 µM,0.737
same,relative viability,COR-L 105; first compound 0.006325 µM,0.647
same,relative viability,COR-L 105; first compound 0.02 µM,0.646
same,relative viability,COR-L 105; first compound 0.06325 µM,0.256
same,relative viability,COR-L 105; first compound 0.2 µM,0.295
same,relative viability,NCI-H2347; first compound 0.002 µM,0.631
same,relative viability,NCI-H2347; first compound 0.006325 µM,0.617
same,relative viability,NCI-H2347; first compound 0.02 µM,0.7
same,relative viability,NCI-H2347; first compound 0.06325 µM,0.408
same,relative viability,NCI-H2347; first compound 0.2 µM,0.296
same,relative viability,NCI-H2023; first compound 0.002 µM,0.459
same,relative viability,NCI-H2023; first compound 0.006325 µM,0.418
same,relative viability,NCI-H2023; first compound 0.02 µM,0.219
same,relative viability,NCI-H2023; first compound 0.06325 µM,0.056
same,relative viability,NCI-H2023; first compound 0.2 µM,0.0536
same,relative viability,COR-L23; first compound 0.002 µM,0.371
same,relative viability,COR-L23; first compound 0.006325 µM,0.344
same,relative viability,COR-L23; first compound 0.02 µM,0.482
same,relative viability,COR-L23; first compound 0.06325 µM,0.0712
same,relative viability,COR-L23; first compound 0.2 µM,0.0572
same,relative viability,HCC-15; first compound 0.002 µM,0.778
same,relative viability,HCC-15; first compound 0.006325 µM,0.682
same,relative viability,HCC-15; first compound 0.02 µM,0.734
same,relative viability,HCC-15; first compound 0.06325 µM,0.345
same,relative viability,HCC-15; first compound 0.2 µM,0.154
same,relative viability,NCI-H1792; first compound 0.002 µM,0.4
same,relative viability,NCI-H1792; first compound 0.006325 µM,0.298
same,relative viability,NCI-H1792; first compound 0.02 µM,0.271
same,relative viability,NCI-H1792; first compound 0.06325 µM,0.0723
same,relative viability,NCI-H1792; first compound 0.2 µM,0.0503
same,relative viability,LC-2-ad; first compound 0.002 µM,0.704
same,relative viability,LC-2-ad; first compound 0.006325 µM,0.713
same,relative viability,LC-2-ad; first compound 0.02 µM,0.866
same,relative viability,LC-2-ad; first compound 0.06325 µM,0.48
same,relative viability,LC-2-ad; first compound 0.2 µM,0.297
same,relative viability,NCI-H1915; first compound 0.002 µM,0.254
same,relative viability,NCI-H1915; first compound 0.006325 µM,0.269
same,relative viability,NCI-H1915; first compound 0.02 µM,0.306
same,relative viability,NCI-H1915; first compound 0.06325 µM,0.148
same,relative viability,NCI-H1915; first compound 0.2 µM,0.124
same,relative viability,NCI-H2009; first compound 0.002 µM,0.763
same,relative viability,NCI-H2009; first compound 0.006325 µM,0.67
same,relative viability,NCI-H2009; first compound 0.02 µM,0.701
same,relative viability,NCI-H2009; first compound 0.06325 µM,0.409
same,relative viability,NCI-H2009; first compound 0.2 µM,0.0486
